Tests used:
[1] = tested on: THC-induced increase in food intake; experiment: THC-induced increase in food intake (fasting-refeeding model); format: in vivo; conditions: mice
Description: The effects of THC on food intake were studied using the fasting-refeeding model (Bellochio et al., 2010) in CB1^f/f male mice. […] Food intake was measured for one hour. Independent groups of animals (at least n=8 per group) were used for each treatment condition.

[2] = molecular target: T1, hERG current (Homo sapiens, UniProt Q12809); experiment: hERG tail current in stably transfected HEK-293 cells (GLP); format: cell-based; conditions: 100 nM, 1 μM and 10 μM
T1 construct: expressed in transfected cells; host or cells: HEK-293
Description: E-4031 was used as positive control and was tested in one separate HEK-293 cell to support the validity of the method used.
Cells were clamped to −80 mV, depolarised to 0 mV for 5 sec allowing activation of hERG current and repolarised to −50 mV for 5 sec allowing hERG tail current to deactivate. This experimental procedure was repeated at a frequency of 0.06 Hz. Currents were filtered at 1 kHz and acquired at the frequency of 2 kHz. Amplitude of hERG tail current was measured during the repolarizing pulse from 0 to −50 mV. […] Currents were measured before and after exposure to the test item.

[3] = tested on: diet-induced obese (DIO) mouse model; experiment: Repeated treatment: food intake and body weight in diet-induced obese (DIO) mice; format: in vivo; conditions: vs vehicle; Rimo 10 mg/kg ip; 3pMBP 0.005-15 mg/kg per os
[4] = molecular target: OAT3 (Homo sapiens, UniProt Q8TCC7); experiment: Cellular transporter inhibition, CHO cells (fluorometry); conditions: 10 μM
Description: (§1) Chinese Hamster Ovary (CHO) were used for all transporters except for P-gp that was studied in Madin-Darby Canine Kidney (MDR1-MDCKII) cells. The inhibition of the activity of each transporter is evaluated by measuring changes in the transport of their specific substrates by fluorometry.

[5] = tested on: THC dependent mice; experiment: Precipitated withdrawal in mice chronically treated with THC; format: in vivo; conditions: mice repeatedly treated with THC 20 mg/kg ip; Rimo 10 mg/kg ip; 3pMBP […] per os
Description: The chronic THC regimen (20 mg/kg, twice a day) used in these experiments has been chosen because it mimics heavy marijuana use (Cook et al., 1998) and is considered as a model of cannabinoids dependence in mice (Cutando et al., 2013; Hutcheson et al., 1998). […] From day 1 to 4-5, mice were injected ip with vehicle or THC (20 mg/kg in NaCl 0.9% containing 2% ethanol and 2% Tween80, 10 ml/kg) twice a day. […] All the other animals received the administration of the respective vehicle. […] The dose and schedule of administration of rimonabant chosen for this study has been commonly used to precipitate THC withdrawal in mice (Cook et al. 1998, Hutcheson et al., 1998, Huang et al., 2009).
For the measure of precipitated withdrawal, mice were placed in a novel home cage and a video camera positioned in front of each cage recorded animals' behaviors. Scoring was performed for 1 minute every 5 min-period. Two withdrawal signs were analyzed: paw tremors and head shaking, since they are the most common signs of THC withdrawal observed in mice (Cook et al. 1998, Hutcheson et al., 1998, Lichtman et al., 2001).

[6] = tested on: male Wistar rats; experiment: Irwin test and body temperature in rats (GLP); format: in vivo; conditions: 2, 9 and 36 mg/kg, single oral
Description: The study involved 4 groups of 6 male Wistar rats weighing between 154.0 and 185.9 g.
On study day, animals were firstly scored by the Irwin standardized observation battery and the body temperature was measured. […] Then the Irwin scores as well as measurement of body temperature were performed again at 1, 3, 6, 8 and 24 hours after the administration.

[7] = molecular target: OATP1B1 (Homo sapiens, UniProt Q9Y6L6); experiment: Cellular transporter inhibition, CHO cells (fluorometry); conditions: 10 μM
Description: as §1

[8] = molecular target: OAT1 (Homo sapiens, UniProt Q4U2R8); experiment: as above; conditions: 10 μM
Description: as §1

[9] = tested on: conscious rats; experiment: Respiration in the unrestrained conscious rat (whole body plethysmography, GLP); conditions: 2, 9 and 36 mg/kg, single oral
Description: The day prior to the study, animals were only allowed to drink water. On the study day, animals were placed in the plethysmograph and measurements started immediately afterwards. The whole body plethysmography method measure in a closed chamber variations in air flow due to thoracic cage movements during respiration and enables the measurement of respiratory parameters in the conscious animal, totally free to move about. […] Respiration was recorded for a total period of 6 hours following the dosing. Respiratory parameters were determined from analysis of respiratory cycles.

[10] = molecular target: P-gp (Homo sapiens, UniProt P08183); experiment: Cellular transporter inhibition, MDR1-MDCKII cells (fluorometry); conditions: 10 μM
Description: as §1

[11] = Metabolic stability in dog liver microsomes (DLM); format: in vitro ADME; conditions: dog LM, NADPH
Description: The investigation was performed on liver microsomes (LM) coming from mouse (MLM), rat (RLM), dog (DLM) and human (HLM).
3pMBP was incubated with liver microsome pools supplemented with NADPH as cofactor. Samples were taken at 5 different times (0, 10, 20, 30 and 60 minutes) and samples were monitored for parent compound disappearance in MRM mode using LC/MS-MS. The Intrinsic Clearance and half-life have been determined. Verapamil was used as reference compound.

[12] = per os 3 h before THC 1 mg/kg ip

Chain of P-gp (P08183 whole entry): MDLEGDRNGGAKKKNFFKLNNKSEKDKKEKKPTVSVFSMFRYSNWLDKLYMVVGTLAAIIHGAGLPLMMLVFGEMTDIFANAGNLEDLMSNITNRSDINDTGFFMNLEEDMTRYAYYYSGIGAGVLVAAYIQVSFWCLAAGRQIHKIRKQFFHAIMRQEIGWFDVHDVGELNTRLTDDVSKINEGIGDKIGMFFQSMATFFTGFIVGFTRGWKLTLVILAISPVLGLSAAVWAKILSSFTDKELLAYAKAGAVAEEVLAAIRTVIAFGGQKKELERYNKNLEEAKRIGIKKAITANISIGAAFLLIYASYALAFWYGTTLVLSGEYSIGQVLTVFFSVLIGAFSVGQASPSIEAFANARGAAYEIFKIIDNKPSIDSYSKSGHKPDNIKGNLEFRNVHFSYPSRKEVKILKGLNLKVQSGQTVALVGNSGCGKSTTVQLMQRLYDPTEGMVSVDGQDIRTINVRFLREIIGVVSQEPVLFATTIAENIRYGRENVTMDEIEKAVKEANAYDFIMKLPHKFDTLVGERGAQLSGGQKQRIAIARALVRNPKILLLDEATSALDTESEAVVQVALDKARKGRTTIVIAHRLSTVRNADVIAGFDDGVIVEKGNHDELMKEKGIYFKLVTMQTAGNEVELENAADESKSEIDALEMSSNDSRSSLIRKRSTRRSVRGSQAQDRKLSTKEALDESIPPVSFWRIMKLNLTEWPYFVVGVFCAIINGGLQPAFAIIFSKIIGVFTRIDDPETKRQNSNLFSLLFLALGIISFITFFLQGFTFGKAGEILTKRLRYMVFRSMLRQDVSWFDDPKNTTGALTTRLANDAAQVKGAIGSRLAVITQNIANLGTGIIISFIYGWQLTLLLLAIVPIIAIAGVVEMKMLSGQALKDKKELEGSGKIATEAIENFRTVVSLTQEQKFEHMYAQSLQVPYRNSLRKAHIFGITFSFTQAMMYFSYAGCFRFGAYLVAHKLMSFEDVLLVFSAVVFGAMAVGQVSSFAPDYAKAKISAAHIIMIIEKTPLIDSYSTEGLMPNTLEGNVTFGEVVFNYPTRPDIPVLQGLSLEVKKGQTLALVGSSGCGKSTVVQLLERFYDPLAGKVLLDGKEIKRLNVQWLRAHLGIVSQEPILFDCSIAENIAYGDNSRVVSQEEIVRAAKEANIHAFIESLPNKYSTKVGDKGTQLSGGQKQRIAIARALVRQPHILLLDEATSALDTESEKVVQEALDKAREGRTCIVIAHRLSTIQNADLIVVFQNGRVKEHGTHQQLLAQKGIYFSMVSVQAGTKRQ
Chain of OAT3 (Q8TCC7 whole entry): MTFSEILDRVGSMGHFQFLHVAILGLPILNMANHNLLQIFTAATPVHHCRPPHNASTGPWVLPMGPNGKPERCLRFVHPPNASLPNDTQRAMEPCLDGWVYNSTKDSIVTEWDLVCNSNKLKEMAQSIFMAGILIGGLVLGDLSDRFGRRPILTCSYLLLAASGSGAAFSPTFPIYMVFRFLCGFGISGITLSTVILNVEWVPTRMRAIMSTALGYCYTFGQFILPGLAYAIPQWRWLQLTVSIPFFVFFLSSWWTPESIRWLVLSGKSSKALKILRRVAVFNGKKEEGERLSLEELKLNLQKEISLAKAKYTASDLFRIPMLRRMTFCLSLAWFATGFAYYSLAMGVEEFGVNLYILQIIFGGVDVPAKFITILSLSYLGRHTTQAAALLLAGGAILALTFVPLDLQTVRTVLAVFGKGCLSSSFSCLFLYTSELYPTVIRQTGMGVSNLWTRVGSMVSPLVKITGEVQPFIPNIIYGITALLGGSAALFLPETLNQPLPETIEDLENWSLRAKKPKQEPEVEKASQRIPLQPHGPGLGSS
Chain of OAT1 (Q4U2R8 whole entry): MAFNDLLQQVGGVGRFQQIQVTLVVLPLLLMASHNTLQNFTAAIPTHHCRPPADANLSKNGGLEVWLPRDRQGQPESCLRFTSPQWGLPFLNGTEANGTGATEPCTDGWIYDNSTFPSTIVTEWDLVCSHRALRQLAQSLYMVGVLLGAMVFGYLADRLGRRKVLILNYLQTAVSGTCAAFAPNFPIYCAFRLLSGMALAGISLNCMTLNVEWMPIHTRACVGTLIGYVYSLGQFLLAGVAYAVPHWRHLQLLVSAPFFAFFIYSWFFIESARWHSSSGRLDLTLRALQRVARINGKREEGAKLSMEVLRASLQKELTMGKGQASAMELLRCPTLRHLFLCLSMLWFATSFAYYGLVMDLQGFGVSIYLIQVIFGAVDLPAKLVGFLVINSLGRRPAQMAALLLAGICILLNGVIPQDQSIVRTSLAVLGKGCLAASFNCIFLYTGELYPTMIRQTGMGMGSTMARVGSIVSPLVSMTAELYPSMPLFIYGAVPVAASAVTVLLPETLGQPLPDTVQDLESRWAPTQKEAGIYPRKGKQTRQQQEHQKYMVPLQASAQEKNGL
Chain of OATP1B1 (Q9Y6L6 whole entry): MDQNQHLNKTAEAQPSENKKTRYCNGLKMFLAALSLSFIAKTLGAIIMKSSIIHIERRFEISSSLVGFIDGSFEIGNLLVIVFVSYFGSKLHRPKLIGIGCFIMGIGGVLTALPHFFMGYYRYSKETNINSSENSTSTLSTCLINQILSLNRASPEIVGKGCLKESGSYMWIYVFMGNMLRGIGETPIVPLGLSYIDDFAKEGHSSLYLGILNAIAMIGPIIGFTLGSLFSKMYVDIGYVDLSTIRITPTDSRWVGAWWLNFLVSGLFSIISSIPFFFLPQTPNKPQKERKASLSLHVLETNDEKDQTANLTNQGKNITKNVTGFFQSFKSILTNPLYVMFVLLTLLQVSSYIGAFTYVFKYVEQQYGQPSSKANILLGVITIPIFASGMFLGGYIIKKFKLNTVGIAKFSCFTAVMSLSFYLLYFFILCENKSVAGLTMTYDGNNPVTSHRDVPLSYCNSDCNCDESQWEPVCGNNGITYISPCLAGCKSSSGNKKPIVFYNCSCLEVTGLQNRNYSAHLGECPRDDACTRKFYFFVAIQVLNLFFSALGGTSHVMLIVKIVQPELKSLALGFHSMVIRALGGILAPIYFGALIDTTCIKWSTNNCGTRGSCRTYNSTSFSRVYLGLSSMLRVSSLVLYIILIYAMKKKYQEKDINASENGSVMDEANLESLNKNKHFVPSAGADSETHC
T1 sequence (Q12809 whole entry): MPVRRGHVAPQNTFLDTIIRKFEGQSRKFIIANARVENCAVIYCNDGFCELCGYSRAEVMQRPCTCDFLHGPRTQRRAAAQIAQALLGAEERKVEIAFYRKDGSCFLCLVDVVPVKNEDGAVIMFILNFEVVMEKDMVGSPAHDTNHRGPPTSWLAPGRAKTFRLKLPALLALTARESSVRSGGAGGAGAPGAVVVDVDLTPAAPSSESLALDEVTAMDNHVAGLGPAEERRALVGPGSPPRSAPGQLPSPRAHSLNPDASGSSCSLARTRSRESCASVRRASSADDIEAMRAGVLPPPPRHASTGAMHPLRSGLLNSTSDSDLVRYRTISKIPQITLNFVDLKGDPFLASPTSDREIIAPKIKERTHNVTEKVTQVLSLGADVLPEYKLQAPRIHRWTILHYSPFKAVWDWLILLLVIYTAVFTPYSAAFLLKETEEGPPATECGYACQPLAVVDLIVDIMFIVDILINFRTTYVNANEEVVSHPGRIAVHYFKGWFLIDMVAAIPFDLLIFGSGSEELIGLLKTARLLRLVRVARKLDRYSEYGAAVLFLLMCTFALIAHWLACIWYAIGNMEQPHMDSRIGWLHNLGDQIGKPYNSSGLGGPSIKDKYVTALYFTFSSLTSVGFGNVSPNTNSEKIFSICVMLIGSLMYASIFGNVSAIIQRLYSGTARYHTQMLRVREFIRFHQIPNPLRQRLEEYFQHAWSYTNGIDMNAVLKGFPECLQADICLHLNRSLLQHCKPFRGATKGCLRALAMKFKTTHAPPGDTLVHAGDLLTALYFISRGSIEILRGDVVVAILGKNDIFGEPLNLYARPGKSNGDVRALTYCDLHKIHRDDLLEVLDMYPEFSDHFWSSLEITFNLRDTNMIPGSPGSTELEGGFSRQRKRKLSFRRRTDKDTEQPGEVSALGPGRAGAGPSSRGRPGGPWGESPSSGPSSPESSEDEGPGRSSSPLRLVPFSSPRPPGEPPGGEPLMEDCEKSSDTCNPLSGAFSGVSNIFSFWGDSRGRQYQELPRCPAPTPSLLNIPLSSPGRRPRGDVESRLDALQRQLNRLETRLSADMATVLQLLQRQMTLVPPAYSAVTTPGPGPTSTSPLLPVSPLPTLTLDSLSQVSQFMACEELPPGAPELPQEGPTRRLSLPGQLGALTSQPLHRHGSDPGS

## COc1ccc(CO[C@H]2CC[C@@]3(C)C(=CC[C@H]4[C@@H]5CC[C@H](C(C)=O)[C@@]5(C)CC[C@@H]43)C2)cc1 [3pMBP, 3β-(4-methoxybenzyloxy)pregn-5-en-20-one]
[1]; [12]
  % inhibition: 100%
  ID50: 0.015 mg/kg
  ID100: 0.05 mg/kg
[1]; per os, THC 1 mg/kg
  ID50: ≈ 15 μg/kg
  ID100: ≈ 50 μg/kg
[2]
  hERG tail currents: did not modify hERG (human ether-ago-go-related gene) tail currents
[3]
  Body weight in obese mice: but not 3pMBP (0.005, 0.015, 0.05, 5 and 15 mg/kg; per os), decreases body weight
[4]
  Activity of OAT3: did not modify the activity
[5]
  Duration of paw tremors: but not 3pMBP (0.15 mg/kg; per os) increases the duration of paw tremors
[6]
  Behavior (Irwin test) and body temperature: did not modify
[7]
  Activity of OATP1B1: did not modify the activity
[8]
  Activity of OAT1: did not modify the activity
[9]
  Respiration: did not modify
[10]
  Activity of P-gp: did not modify the activity
[11]
  half-life: 53.4 min
[11]; read-out: intrinsic clearance
  microsomal CLint: 26 µL/min/mg

Reference: patent publication US12447159B2 (AELIS FARMA, priority 2018, dated 2025)
